Source: patent US20130302442A1, “METHODS OF USING (4S,4AS,5AR,12AS)-4-DIMETHYLAMINO-3,10,12,12A-TETRAHYDROXY-7-[(METHOXY(METHYL)AMINO)-METHYL]-1,11-DIOXO-1,4,4A,5,5A,6,11,12A-OCTAHYDRO-NAPHTHACENE-2-CARBOXYLIC ACID AMIDE” (priority 2012, published 2013)
Values after ≈ are worked out from the molar mass of the structure shown. Like-named read-outs stand apart in the source and are kept apart here.

Tests used:
[1] = test system: P. aeruginosa; experiment: In vitro MIC testing, antibacterial spectrum of activity; type: cell-based; conditions: Pseudomonas aeruginosa; P. aeruginosa (11 isolates)
[2] = test system: Lactobacillus acidophilus; experiment: In vitro MIC testing against anaerobic bacteria; type: cell-based; conditions: Lactobacillus acidophilus 0681
[3] = test system: E. faecium; experiment: In vitro MIC testing, antibacterial spectrum of activity; type: cell-based; conditions: for MIC / MIC50 / MIC90: Enterococcus faecium; for MIC50: read-out: MIC50; for MIC90: read-out: MIC90
[4] = test system: P. mirabilis; experiment: as above; type: cell-based; conditions: P. mirabilis (30 isolates)
[5] = test system: Bifidobacterium longum; experiment: In vitro MIC testing against anaerobic bacteria; type: cell-based; conditions: ATCC15707; Bifidobacterium longum 3968, ATCC 15707
[6] = test system: Porphyromonas asaccharolytica; experiment: In vitro MIC testing against anaerobic bacteria; type: cell-based
[7] = test system: Propionibacterium acnes; experiment: In vitro MIC testing against anaerobic bacteria; type: cell-based; conditions: Cutibacterium acnes
[8] = test system: Bacteroides vulgatus; experiment: In vitro MIC testing against anaerobic bacteria; type: cell-based
[9] = test system: P. avidum; experiment: In vitro MIC testing, antibacterial spectrum of activity; type: cell-based; conditions: P. avidum [clinical isolates] (4 isolates)
[10] = test system: Clostridium difficile; experiment: In vitro MIC testing against anaerobic bacteria; type: cell-based
[11] = test system: Bifidobacterium bifidum; experiment: In vitro MIC testing against anaerobic bacteria; type: cell-based; conditions: ATCC15696; Bifidobacterium bifidum 3965, ATCC 15696
[12] = test system: Bacteroides thetaiotaomicron; experiment: In vitro MIC testing against anaerobic bacteria; type: cell-based
[13] = test system: Prevotella melaninogenica; experiment: In vitro MIC testing against anaerobic bacteria; type: cell-based
[14] = test system: Peptostreptococcus anaerobius; experiment: In vitro MIC testing against anaerobic bacteria; type: cell-based
[15] = test system: Bifidobacterium brevi; experiment: In vitro MIC testing against anaerobic bacteria; type: cell-based; conditions: ATCC15698; Bifidobacterium brevi 3967, ATCC 15698
[16] = test system: Lactobacillus casei; experiment: In vitro MIC testing against anaerobic bacteria; type: cell-based; conditions: Lacticaseibacillus casei, ATCC393; Lactobacillus casei 1722, ATCC 393
[17] = test system: Bacteroides fragilis; experiment: In vitro MIC testing against anaerobic bacteria; type: cell-based
[18] = test system: Fusobacterium nucleatum; experiment: In vitro MIC testing against anaerobic bacteria; type: cell-based; conditions: Fusobacterium nucleatum, ATCC25586
[19] = test system: Clostridium perfringens; experiment: microbe, parasite or virus in culture; type: cell-based
[20] = test system: Peptostreptococcus micros; experiment: In vitro MIC testing against anaerobic bacteria; type: cell-based; conditions: Parvimonas micra
[21] = test system: P. granulosum; experiment: In vitro MIC testing, antibacterial spectrum of activity; type: cell-based; conditions: P. granulosum [clinical isolates] (3 isolates)
[22] = test system: S. epidermidis; experiment: as above; type: cell-based, Staphylococcus epidermidis; conditions: for MIC50 / MIC90: Staphylococcus epidermidis; for MIC50: read-out: MIC50; for MIC90: read-out: MIC90
[23] = test system: S. haemolyticus; experiment: as above; type: cell-based; conditions: S. haemolyticus (33 isolates)
[24] = test system: Bacteroides ovatus; experiment: In vitro MIC testing against anaerobic bacteria; type: cell-based
[25] = test system: Bifidobacterium infantis; experiment: In vitro MIC testing against anaerobic bacteria; type: cell-based; conditions: ATCC15702; Bifidobacterium infantis 3966, ATCC 15702
[26] = test system: Prevotella spp.; experiment: In vitro MIC testing against anaerobic bacteria; type: cell-based
[27] = test system: Eikenella corrodens; experiment: In vitro MIC testing against anaerobic bacteria; type: cell-based; conditions: ATCC43278; Eikenella corrodens 1206, ATCC 43278; read-out: MIC
[28] = test system: S. pneumoniae; experiment: In vitro MIC testing, antibacterial spectrum of activity; type: cell-based, Streptococcus pneumoniae
[29] = test system: E. faecalis; experiment: as above; type: cell-based
[30] = test system: Lactobacillus plantarum; experiment: In vitro MIC testing against anaerobic bacteria; type: cell-based; conditions: Lactiplantibacillus plantarum, ATCC39268; Lactobacillus plantarum 2791, ATCC 39268
[31] = test system: S. agalactiae; experiment: In vitro MIC testing, antibacterial spectrum of activity; type: cell-based
[32] = test system: Veillonella parvula; experiment: In vitro MIC testing against anaerobic bacteria; type: cell-based; conditions: ATCC17745; Veillonella parvula 1272, ATCC 17745
[33] = S. epidermidis [MRSE] (32 isolates)
[34] = S. epidermidis [MSSE] (31 isolates)

SMILES: CON(C)Cc1ccc(O)c2c1C[C@H]1C[C@H]3[C@H](N(C)C)C(O)=C(C(N)=O)C(=O)[C@@]3(O)C(O)=C1C2=O [The Active, (4S,4aS,5aR,12aS)-4-dimethylamino-3,10,12,12a-tetrahydroxy-7-[(methoxy(methyl)amino)-methyl]-1,11-dioxo-1,4,4a,5,5a,6,11,12a-octahydro-naphthacene-2-carboxylic acid amide]
- MIC50 [1]: > 64 µg/mL
- MIC90 [1]: > 64 µg/mL
- MIC [2]: 4 µg/mL (≈ 8.2 µM)
- MIC Range ([3]; E. faecium [VRE] (30 isolates)): 0.12 to 32 µg/mL
- MIC Range ([3]; E. faecium [VSE] (32 isolates)): 0.12 to 32 µg/mL
- MIC Range ([3]; E. faecium [tetR] (6 isolates)): 8 to 32 µg/mL
- MIC ([3]; E. faecium strain PBS # 965, tetM): 8 µg/mL (≈ 16.4 µM)
- MIC ([3]; E. faecium strain PBS # 1323, tetK): 8 µg/mL (≈ 16.4 µM)
- MIC ([3]; E. faecium strain PBS # 1324, tetO): 16 µg/mL (≈ 32.8 µM)
- MIC50 ([3]; E. faecium [VRE] (30 isolates)): 2 µg/mL (≈ 4.1 µM)
- MIC90 ([3]; E. faecium [VRE] (30 isolates)): 32 µg/mL (≈ 65.6 µM)
- MIC50 ([3]; E. faecium [VSE] (32 isolates)): 0.5 µg/mL (≈ 1.03 µM)
- MIC90 ([3]; E. faecium [VSE] (32 isolates)): 32 µg/mL (≈ 65.6 µM)
- MIC Range [4]: >64 µg/mL
- MIC50 ([4]; Proteus mirabilis): > 64 µg/mL
- MIC90 ([4]; Proteus mirabilis): > 64 µg/mL
- MIC [5]: 4 µg/mL (≈ 8.2 µM)
- MIC [6]: 16 µg/mL (≈ 32.8 µM)
- MIC ([6]; Porphyromonas asaccharolytica 3557, read-out: MIC): 8 µg/mL (≈ 16.4 µM)
- MIC [7]: 0.25 µg/mL (≈ 0.513 µM)
- MIC ([7]; ATCC11829, Propionibacterium acnes 1286, ATCC 11829, read-out: MIC): 1 µg/mL (≈ 2.05 µM)
- MIC ([7]; P. acnes, summary of Table 1, read-out: minimum inhibitory concentration (MIC), relatively potent activity): ≤ 4 µg/mL
- MIC ([8]; Bacteroides vulgatus 3494): 16 µg/mL (≈ 32.8 µM)
- MIC ([8]; Phocaeicola vulgatus): 16 µg/mL (≈ 32.8 µM)
- MIC Range [9]: 1 to 4 µg/mL
- MIC ([10]; Clostridioides difficile): 0.12 µg/mL (≈ 0.246 µM)
- MIC ([10]; Clostridium difficile 3584): 0.12 µg/mL (≈ 0.246 µM)
- MIC [11]: 1 µg/mL (≈ 2.05 µM)
- MIC ([12]; Bacteroides thetaiotaomicron 3399): 0.25 µg/mL (≈ 0.513 µM)
- MIC ([12]; Bacteroides thetaiotaomicron 3496): 16 µg/mL (≈ 32.8 µM)
- MIC ([13]; Prevotella melaninogenica 3437, read-out: MIC): 32 µg/mL (≈ 65.6 µM)
- MIC ([13]; Prevotella melaninogenica 3443, read-out: MIC): 4 µg/mL (≈ 8.2 µM)
- MIC ([14]; Peptostreptococcus anaerobius 3526): 2 µg/mL (≈ 4.1 µM)
- MIC ([14]; Peptostreptococcus anaerobius 3531): 4 µg/mL (≈ 8.2 µM)
- MIC [15]: 1 µg/mL (≈ 2.05 µM)
- MIC [16]: 2 µg/mL (≈ 4.1 µM)
- MIC ([17]; Bacteroides fragilis 3374): 0.12 µg/mL (≈ 0.246 µM)
- MIC ([17]; Bacteroides fragilis 3479): 16 µg/mL (≈ 32.8 µM)
- MIC [18]: 0.25 µg/mL (≈ 0.513 µM)
- MIC [19]: 16 µg/mL (≈ 32.8 µM)
- MIC ([19]; read-out: MIC, high MIC values): > 16 µg/mL
- MIC [20]: 0.25 µg/mL (≈ 0.513 µM)
- MIC ([20]; Peptostreptococcus micros 3545, read-out: MIC): 1 µg/mL (≈ 2.05 µM)
- MIC Range [21]: 1-1 μg/mL
- MIC Range [22, 33]: 0.25 to 2 µg/mL
- MIC Range [22, 34]: 0.12 to 2 µg/mL
- MIC50 [22, 33]: 0.5 µg/mL (≈ 1.03 µM)
- MIC90 [22, 33]: 2 µg/mL (≈ 4.1 µM)
- MIC50 [22, 34]: 0.25 µg/mL (≈ 0.513 µM)
- MIC90 [22, 34]: 2 µg/mL (≈ 4.1 µM)
- MIC Range [23]: 0.12 to 2 µg/mL
- MIC50 ([23]; Staphylococcus haemolyticus, read-out: MIC50): 0.12 µg/mL (≈ 0.246 µM)
- MIC90 ([23]; Staphylococcus haemolyticus, read-out: MIC90): 2 µg/mL (≈ 4.1 µM)
- MIC [24]: 0.25 µg/mL (≈ 0.513 µM)
- MIC ([24]; Bacteroides ovatus 3503, read-out: MIC): 8 µg/mL (≈ 16.4 µM)
- MIC [25]: 0.5 µg/mL (≈ 1.03 µM)
- MIC ([26]; Prevotella spp. 3564): 4 µg/mL (≈ 8.2 µM)
- MIC ([26]; Prevotella spp. 3568): 2 µg/mL (≈ 4.1 µM)
- MIC [27]: 1 µg/mL (≈ 2.05 µM)
- MIC Range ([28]; S. pneumoniae [PSSP] (32 isolates)): ≦0.03-32 μg/mL
- MIC Range ([28]; S. pneumoniae [tetR] (5 isolates)): 4 to 32 µg/mL
- MIC Range ([28]; S. pneumoniae [tetS] (5 isolates)): ≦0.06-0.125 μg/mL
- MIC50 ([28]; Streptococcus pneumoniae, S. pneumoniae [PSSP] (32 isolates), read-out: MIC50): 0.12 µg/mL (≈ 0.246 µM)
- MIC90 ([28]; Streptococcus pneumoniae, S. pneumoniae [PSSP] (32 isolates), read-out: MIC90): 0.25 µg/mL (≈ 0.513 µM)
- MIC ([28]; Streptococcus pneumoniae, S. pneumoniae strain PBS # 511, tetM): 4 µg/mL (≈ 8.2 µM)
- MIC Range ([29]; E. faecalis [VSE] (31 isolates)): 0.25 to 32 µg/mL
- MIC Range ([29]; E. faecalis [tetR] (6 isolates)): 8 to 32 µg/mL
- MIC ([29]; Enterococcus faecalis, E. faecalis strain PBS # 274, tetL): 32 µg/mL (≈ 65.6 µM)
- MIC ([29]; Enterococcus faecalis, E. faecalis strain PBS # 276, tetM): 16 µg/mL (≈ 32.8 µM)
- MIC ([29]; Enterococcus faecalis, E. faecalis strain PBS # 949, tetS): 8 µg/mL (≈ 16.4 µM)
- MIC50 ([29]; Enterococcus faecalis, E. faecalis [VSE] (31 isolates), read-out: MIC50): 32 µg/mL (≈ 65.6 µM)
- MIC90 ([29]; Enterococcus faecalis, E. faecalis [VSE] (31 isolates), read-out: MIC90): 32 µg/mL (≈ 65.6 µM)
- MIC [30]: 2 µg/mL (≈ 4.1 µM)
- MIC Range ([31]; S. agalactiae (31 isolates)): 0.12 to 32 µg/mL
- MIC Range ([31]; S. agalactiae [tetR] (7 isolates)): 16 to 32 µg/mL
- MIC Range ([31]; S. agalactiae [tetS] (3 isolates)): 0.125 to 0.25 µg/mL
- MIC ([31]; Streptococcus agalactiae, S. agalactiae strain PBS # 316, tetO): 32 µg/mL (≈ 65.6 µM)
- MIC ([31]; Streptococcus agalactiae, S. agalactiae strain PBS # 897, tetM): 16 µg/mL (≈ 32.8 µM)
- MIC90 ([31]; Streptococcus agalactiae, S. agalactiae (31 isolates), read-out: MIC90): 16 µg/mL (≈ 32.8 µM)
- MIC [32]: 4 µg/mL (≈ 8.2 µM)
